In patent publication US7956194B2, “Microbiocidal (E.G. fungicidal) 1,2,3-triazole derivatives” (Syngenta Crop Protection, Inc., priority 2002, dated 2011):

| melting point | Structure (SMILES) |
| --- | --- |
| 155 to 156 °C | Cn1nc(C(=O)Nc2cc(Cl)ccc2-c2ccccc2)c(C(F)F)n1 [Compound 3.017, 5-difluoromethyl-2-methyl-2H-1,2,3-triazole-4-carboxylic acid (4-chloro-biphenyl-2-yl)-amide] |
| 94.6 to 95.4 °C | CC(C)CC(C)c1ccccc1NC(=O)c1nn(C)nc1C(F)(F)F (centres unmarked) [Compound 2.219, 2-methyl-5-trifluoromethyl-2H-1,2,3-triazole-4-carboxylic acid [2-(1,3-dimethyl-butyl)-phenyl]-amide] |
